Earlier results, collected in patent publication US20080269311A1, “Combination of Dpp-Iv Inhibitors and Compounds Modulating 5-Ht3 and/or 5-Ht4 Receptors” (priority 2004, published 2008).

Molecular target: T1, 5-HT3 receptor subtype (Homo sapiens, UniProt P46098)
T1 sequence (P46098 24-478): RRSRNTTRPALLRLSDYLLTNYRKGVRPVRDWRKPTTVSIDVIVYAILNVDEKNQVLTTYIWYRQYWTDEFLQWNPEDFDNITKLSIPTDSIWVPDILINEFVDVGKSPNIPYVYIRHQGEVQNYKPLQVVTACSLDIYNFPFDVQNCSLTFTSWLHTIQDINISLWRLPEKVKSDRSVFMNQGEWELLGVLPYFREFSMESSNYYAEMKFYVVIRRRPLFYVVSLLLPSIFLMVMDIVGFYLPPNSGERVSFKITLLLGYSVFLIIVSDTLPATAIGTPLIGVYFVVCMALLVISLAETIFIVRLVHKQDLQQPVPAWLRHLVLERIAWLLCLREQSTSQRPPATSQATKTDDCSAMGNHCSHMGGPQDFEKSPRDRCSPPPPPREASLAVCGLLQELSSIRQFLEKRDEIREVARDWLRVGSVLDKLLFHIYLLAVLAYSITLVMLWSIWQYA

CCCCCNC(=N)NN=Cc1c[nH]c2ccc(OC)cc12 [Tegaserod, 3-(5-methoxy-1H-indol-3-yl-methylene)-N-pentylcarbazimidamide]
binding to or stimulation of the 5-HT3 receptor subtype (selectivity): does neither bind to nor stimulate
